target: SARS-CoV-2 Papain-Like Protease (PLpro) (Severe acute respiratory syndrome coronavirus 2 (2019-nCoV) (SARS-CoV-2), UniProt P0DTD1); assay: biochemical; conditions: PLpro enzymatic fluorescence assay; class symbols; read-out: PLpro IC50

Row | SMILES | IC50
1 | CC(C)=Cc1cc(C2(NC(=O)c3cc(OC[C@@H]4CCN4C)ccc3C)CC2)c2cccnc2c1 [Compound 603, (S)-2-Methyl-5-((1-methylazetidin-2-yl)methoxy)-N-(1-(7-(2-methylprop-1-en-1-yl)quinolin-5-yl)cyclopropyl)benzamide] | < 100 nM
2 | Cc1ccc(OC[C@@H]2CCN2)cc1C(=O)NC1(c2cc(-c3cccs3)cc3ncccc23)CC1 [Compound 608, (S)-5-(Azetidin-2-ylmethoxy)-2-methyl-N-(1-(7-(thiophen-2-yl)quinolin-5-yl)cyclopropyl)benzamide] | < 100 nM
3 | Cc1ccc(OC[C@@H]2CCN2C)cc1C(=O)NC1(c2cc(C3=CCCC3)cc3ncccc23)CC1 [Compound 609, (S)-N-(1-(7-(Cyclopent-1-en-1-yl)quinolin-5-yl)cyclopropyl)-2-methyl-5-((1-methylazetidin-2-yl)methoxy)benzamide] | < 100 nM
4 | C=Cc1cc(C2(NC(=O)c3cc(OC[C@@H]4CCN4)ccc3C)CC2)c2cccnc2c1 [Compound 612, (S)-5-(Azetidin-2-ylmethoxy)-2-methyl-N-(1-(7-vinylquinolin-5-yl)cyclopropyl)benzamide] | < 100 nM
5 | C=C(C)c1cc(C2(NC(=O)c3cc(OC[C@@H]4CCN4)ccc3C)CC2)c2cccnc2c1 [Compound 613, (S)-5-(Azetidin-2-ylmethoxy)-2-methyl-N-(1-(7-(prop-1-en-2-yl)quinolin-5-yl)cyclopropyl)benzamide] | < 100 nM
6 | C=Cc1cc(C2(NC(=O)c3cc(OCCNC)ccc3C)CC2)c2cccnc2c1 [Compound 615, 2-Methyl-5-(2-(methylamino)ethoxy)-N-(1-(7-vinylquinolin-5-yl)cyclopropyl)benzamide] | < 100 nM
7 | C=C(C)c1cc(C2(NC(=O)c3cc(OCCNC)ccc3C)CC2)c2cccnc2c1 [Compound 616, 2-Methyl-5-(2-(methylamino)ethoxy)-N-(1-(7-(prop-1-en-2-yl)quinolin-5-yl)cyclopropyl)benzamide] | < 100 nM
8 | COc1cc(C2(NC(=O)c3cc(OC[C@@H]4CCN4C)ccc3C)CC2)c2ccc(Cl)nc2c1 [Compound 617, (S)-N-(1-(2-Chloro-7-methoxyquinolin-5-yl)cyclopropyl)-2-methyl-5-((1-methylazetidin-2-yl)methoxy)benzamide] | < 100 nM
9 | Cc1ccc(OC[C@@H]2CCN2C)cc1C(=O)NC1(c2cc(-n3cccn3)cc3ncccc23)CC1 [Compound 619, (S)-N-(1-(7-(1H-Pyrazol-1-yl)quinolin-5-yl)cyclopropyl)-2-methyl-5-((1-methylazetidin-2-yl)methoxy)benzamide] | < 100 nM
10 | C#Cc1cc(C2(NC(=O)c3cc(OC[C@@H]4CCN4C)ccc3C)CC2)c2cccnc2c1 [Compound 620, (S)-N-(1-(7-Ethynylquinolin-5-yl)cyclopropyl)-2-methyl-5-((1-methylazetidin-2-yl)methoxy)benzamide] | < 100 nM
11 | Cc1ccc(OC[C@@H]2CCN2C)cc1C(=O)NC1(c2cc(-c3cc4ccccc4s3)cc3ncccc23)CC1 [Compound 621, (S)-N-(1-(7-(Benzo[b]thiophen-2-yl)quinolin-5-yl)cyclopropyl)-2-methyl-5-((1-methylazetidin-2-yl)methoxy)benzamide] | < 100 nM
12 | Cc1ccc(OC[C@@H]2CCN2C)cc1C(=O)NC1(c2cc(-c3ccc(Cl)s3)cc3ncccc23)CC1 [Compound 623, (S)-N-(1-(7-(5-Chlorothiophen-2-yl)quinolin-5-yl)cyclopropyl)-2-methyl-5-((1-methylazetidin-2-yl)methoxy)benzamide] | < 100 nM
13 | COc1cc(C2(NC(=O)c3cc(OC[C@@H]4CCN4C)ccc3C)CC2)c2ccc(C)nc2c1 [Compound 625, (S)-N-(1-(7-Methoxy-2-methylquinolin-5-yl)cyclopropyl)-2-methyl-5-((1-methylazetidin-2-yl)methoxy)benzamide] | < 100 nM
14 | COc1cc(C2(NC(=O)c3cc(OCCNC(C)(C)C)ccc3C)CC2)c2cccnc2c1 [Compound 626, 5-(2-(tert-Butylamino)ethoxy)-N-(1-(7-methoxyquinolin-5-yl)cyclopropyl)-2-methylbenzamide] | < 100 nM
15 | CNCCOc1ccc(C)c(C(=O)NC2(c3cc(-c4cccs4)cc4ncccc34)CC2)c1 [Compound 630, 2-Methyl-5-(2-(methylamino)ethoxy)-N-(1-(7-(thiophen-2-yl)quinolin-5-yl)cyclopropyl)benzamide] | < 100 nM
16 | Cc1ccc(OC[C@@H]2CCN2C)cc1C(=O)NC1(c2cc(-c3cc(Cl)cs3)cc3ncccc23)CC1 [Compound 632, (S)-N-(1-(7-(4-Chlorothiophen-2-yl)quinolin-5-yl)cyclopropyl)-2-methyl-5-((1-methylazetidin-2-yl)methoxy)benzamide] | < 100 nM
17 | Cc1ccc(OC[C@@H]2CCN2C)cc1C(=O)NC1(c2cc(-c3cc[nH]n3)cc3ncccc23)CC1 [Compound 633, (S)-N-(1-(7-(1H-Pyrazol-3-yl)quinolin-5-yl)cyclopropyl)-2-methyl-5-((1-methylazetidin-2-yl)methoxy)benzamide] | < 100 nM
18 | Cc1ccc(OC[C@@H]2CCN2)cc1C(=O)NC1(c2cc(-c3ccn(C)n3)cc3ncccc23)CC1 [Compound 634, (S)-5-(Azetidin-2-ylmethoxy)-2-methyl-N-(1-(7-(1-methyl-1H-pyrazol-3-yl)quinolin-5-yl)cyclopropyl)benzamide] | < 100 nM
19 | Cc1cc(-c2cc(C3(NC(=O)c4cc(OC[C@@H]5CCN5)ccc4C)CC3)c3cccnc3c2)n[nH]1 [Compound 635, (S)-5-(Azetidin-2-ylmethoxy)-2-methyl-N-(1-(7-(5-methyl-1H-pyrazol-3-yl)quinolin-5-yl)cyclopropyl)benzamide] | < 100 nM
20 | Cc1ccc(OC[C@@H]2CCN2)cc1C(=O)NC1(c2cc(-c3cc[nH]n3)cc3ncccc23)CC1 [Compound 636, (S)-N-(1-(7-(1H-Pyrazol-3-yl)quinolin-5-yl)cyclopropyl)-5-(azetidin-2-ylmethoxy)-2-methylbenzamide] | < 100 nM
21 | Cc1ccc(OC[C@@H]2CCN2)cc1C(=O)NC1(c2cc(-c3cccnc3)cc3ncccc23)CC1 [Compound 637, (S)-5-(Azetidin-2-ylmethoxy)-2-methyl-N-(1-(7-(pyridin-3-yl)quinolin-5-yl)cyclopropyl)benzamide] | < 100 nM
22 | CC(=O)c1cc(C2(NC(=O)c3cc(OC[C@@H]4CCN4C)ccc3C)CC2)c2cccnc2c1 [Compound 638, (S)-N-(1-(7-Acetylquinolin-5-yl)cyclopropyl)-2-methyl-5-((1-methylazetidin-2-yl)methoxy)benzamide] | < 100 nM
23 | CNCCOc1ccc(C)c(C(=O)NC2(c3cc(-c4ccnn4C)cc4ncccc34)CC2)c1 [Compound 639, 2-Methyl-N-(1-(7-(1-methyl-1H-pyrazol-5-yl)quinolin-5-yl)cyclopropyl)-5-(2-(methylamino)ethoxy)benzamide] | < 100 nM
24 | Cc1cc(-c2cc(C3(NC(=O)c4cc(OC[C@@H]5CCN5)ccc4C)CC3)c3cccnc3c2)cs1 [Compound 640, (S)-5-(Azetidin-2-ylmethoxy)-2-methyl-N-(1-(7-(5-methylthiophen-3-yl)quinolin-5-yl)cyclopropyl)benzamide] | < 100 nM
25 | Cc1cc(-c2cc(C3(NC(=O)c4cc(OC[C@@H]5CCN5)ccc4C)CC3)c3cccnc3c2)c(C)o1 [Compound 641, (S)-5-(Azetidin-2-ylmethoxy)-N-(1-(7-(2,5-dimethylfuran-3-yl)quinolin-5-yl)cyclopropyl)-2-methylbenzamide] | < 100 nM
26 | Cc1ccc(OC[C@@H]2CCN2)cc1C(=O)NC1(c2cc(-c3cn[nH]c3)cc3ncccc23)CC1 [Compound 642, (S)-N-(1-(7-(1H-Pyrazol-4-yl)quinolin-5-yl)cyclopropyl)-5-(azetidin-2-ylmethoxy)-2-methylbenzamide] | < 100 nM
27 | CC(=O)c1ccc(-c2cc(C3(NC(=O)c4cc(OC[C@@H]5CCN5)ccc4C)CC3)c3cccnc3c2)s1 [Compound 643, (S)-N-(1-(7-(5-Acetylthiophen-2-yl)quinolin-5-yl)cyclopropyl)-5-(azetidin-2-ylmethoxy)-2-methylbenzamide] | < 100 nM
28 | Cc1ccc(OC[C@@H]2CCN2C)cc1C(=O)NC1(c2cc(-c3ccn(C(F)F)n3)cc3ncccc23)CC1 [Compound 644, (S)-N-(1-(7-(1-(Difluoromethyl)-1H-pyrazol-3-yl)quinolin-5-yl)cyclopropyl)-2-methyl-5-((1-methylazetidin-2-yl)methoxy)benzamide] | < 100 nM
29 | Cc1ccc(OC[C@@H]2CCN2)cc1C(=O)NC1(c2cc(-c3ccoc3)cc3ncccc23)CC1 [Compound 645, (S)-5-(Azetidin-2-ylmethoxy)-N-(1-(7-(furan-3-yl)quinolin-5-yl)cyclopropyl)-2-methylbenzamide] | < 100 nM
30 | Cc1ccc(-c2cc(C3(NC(=O)c4cc(OC[C@@H]5CCN5)ccc4C)CC3)c3cccnc3c2)o1 [Compound 646, (S)-5-(Azetidin-2-ylmethoxy)-2-methyl-N-(1-(7-(5-methylfuran-2-yl)quinolin-5-yl)cyclopropyl)benzamide] | < 100 nM

same assay, conditions: SARS-CoV-2 PLpro enzymatic fluorescence assay; read-out: PLpro IC50

Row | SMILES | IC50
31 | Cc1ccc(OC[C@@H]2CCN2C)cc1C(=O)NC1(c2cc(C(F)(F)F)cc3ncccc23)CC1 [Compound 600, (S)-2-Methyl-5-((1-methylazetidin-2-yl)methoxy)-N-(1-(7-(trifluoromethyl)quinolin-5-yl)cyclopropyl)benzamide] | < 100 nM
32 | Cc1ccc(OC[C@@H]2CCN2C)cc1C(=O)NC1(c2cc(N(C)C)nc3cc(F)ccc23)CC1 [Compound 611, (S)-N-(1-(2-(Dimethylamino)-7-fluoroquinolin-4-yl)cyclopropyl)-2-methyl-5-((1-methylazetidin-2-yl)methoxy)benzamide] | < 100 nM
33 | Cc1ccc(OC[C@@H]2CCN2C)cc1C(=O)NC1(c2cc(Cl)cc3ncccc23)CC1 [Compound 624, (S)-N-(1-(7-Chloroquinolin-5-yl)cyclopropyl)-2-methyl-5-((1-methylazetidin-2-yl)methoxy)benzamide] | < 100 nM
34 | Cc1ccc(OC[C@@H]2CCN2C)cc1C(=O)NC1(c2cc(N(C)C)cc3ncccc23)CC1 [Compound 627, (S)-N-(1-(7-(Dimethylamino)quinolin-5-yl)cyclopropyl)-2-methyl-5-((1-methylazetidin-2-yl)methoxy)benzamide] | < 100 nM

— patent US20250025443A1, “COMPOUNDS AND METHODS FOR TREATING CORONA VIRUSES” (CLEAR CREEK BIO, INC., priority 2021, published 2025)
